Entries after “also recorded” stand apart in the source; their conditions may differ.
Experiments:
antibodies to HIV-2 = test: Rapid EIA with latex reagents to detect antibodies to HIV-2; assay type: binding
Procedure: A 125 microliter volume of 10% latex was added to a 375 microliter volume of deionized water, and mixed with an equal volume (0.5 ml) of 1M carbodiimide, pH 4.5. The mixture was shaken gently a room temperature for 1 hour, and then washed 3 times by centrifugation at 9,000×g for 10 minutes, removal of supernate, and resuspension of the pellet in a 12-14 ml volume of deionized water, pH 4.5. The free peptides at 1 mg/ml concentration (500 micrograms/ml of each peptide 4S36 and 5S70), or the peptide-BSA conjugate of peptides 4S36 and 5S70 at 500 micrograms/ml were added to the final washed activated latex pellet (1 ml volume of peptide containing solution per 125 microliters original volume of latex). […] It was determined that this stock solution of latex coated with peptide-BSA conjugate could be diluted 1:10-1:30 with latex diluent buffer for use in the rapid EIA described below.
Serum specimens were diluted 1:8 for the rapid EIA in a serum diluent buffer consisting of 0.03M Tris, pH 8 containing 0.8% NaCl, 0.05% NaN3, 0.05% Triton x-100. […] The reaction was stopped after 3-4 minutes by adding a drop of 4N H2 SO4, and the test device could be retained as a permanent record of positive (blue-purple color) or negative (white membrane) until the results were recorded. […]

antibodies to SIV/HIV-2 = test: EIA of peptide-protein conjugates coated on polystyrene microtiter plates, macaque sera; assay type: binding, rhesus macaque (Macaca mulatta)
Excerpt: For all of the immunoassays employing human serum, the serum samples were obtained from the King County Health Department, Seattle, Wash., U.S.A., and each serum had been characterized as positive or negative with respect to antibodies to HIV-1, as determined by testing with the commercially licensed Genetic Systems and or DuPont EIA tests. Serum from rhesus macaque monkeys (Macaca mulatta) was obtained from the University of Washington, Seattle, Wash., U.S.A., and had been characterized by a SIV whole virus lysate EIA as either containing or not containing antibodies to SIV which is nearly identical in sequence to HIV-2 in the region of the peptide epitopes studied.
(§1) The free peptides or peptide-protein conjugates of FIGS. 1-13 were initially screened for immunoreactivity by coating each well of polystyrene microtiter EIA plates (Costar, Cambridge, Mass., U.S.A.) with 0.2 ml amounts of concentrations of 5-50 micrograms/ml peptide in Tris buffer, 10 mM, pH 8.0, at 4° C. overnight. Peptides or peptide-protein conjugates showing immunoreactivity by EIA were then further diluted for coating to determine the minimal concentrations required that allowed maximal immunoreactivity with antibodies to HIV, and minimal nonspecific reactivity with normal sera. The EIA tests were performed as follows: The coating solution was removed from each well and the wells were blocked at 37° C. for 30 minutes with a solution of 50 mM phosphate, 100 mM NaCl, pH 7.4, 1% BSA, 0.5% gelatin. The wells were then aspirated dry with a microtiter plate washer and washed 3 times with a solution of 50 mM phosphate, 100 mM NaCl, 0.05% Tween 20, pH 7.4 (PBST). A 1:101 dilution (in PBST with 1% BSA, 1% NRS) of the primate serum to be tested was then added as 0.2 ml to each washed well and the plates were incubated at 37° C. for 30 minutes. The plates were then washed×3 with PBST, and 0.2 ml amounts of a 1:2000 dilution of goat anti-human (GAH) peroxidase enzyme conjugate (Organon Teknika, Cappel, Melvern, Pa., U.S.A.) that recognized human IgG, IgA, and IgM were added to each well, and the plates were incubated for 30 minutes at 37° C. The plates were then washed×3 with PBST and incubated with 0.2 ml/well substrate consisting of 0.1M citric acid pH 5.2, 0.1 mg/ml o-phenylene diamine, 0.01% H2 O2, at room temperature in the dark for 10 minutes. Reactions were stopped with 50 microliters of 4N H2 SO4, and the color development was quantitated in a Multiscan plate reader at A492. In each series of experiments positive and negative controls were included, and all tests were done in duplicate or quadruplicate. Most peptides and peptide conjugates were initially screened against a 1:101 dilution of pools of HIV positive or HIV negative sera, and the same serum pool was used to allow quantitative comparison of immunoreactivity of different free peptides or peptide-protein conjugates.
(§2) The peptides in FIGS. 1 and 5 were synthesized as described in Example 1 and conjugated to KLH or BSA as described in Example 2. These peptide-protein conjugates were coated to polystyrene microtiter plates all at a concentration 10 micrograms peptide/ml and evaluated for immunoreactivity as described in Example 3, using a 1:101 dilution of a pool of sera (HIV+/SIV+, respectively) containing antibodies to HIV-1 (FIG. 1) or to HIV-2 (FIG. 5), as well as pooled serum (HIV-/SIV-, respectively) containing no antibodies to HIV-1 or HIV-2. […] Since sera from patients infected with HIV-2 are relatively unavailable in the United States, the immunoreactivity of HIV-2 synthetic peptides was assessed using serum from macaques infected with SIV, obtained from the University of Washington Primate Center, Seattle, Wash., U.S.A. The AA sequence of SIV is nearly identical to HIV-2 in the region of the peptides synthesized (see Myers et al., Human Retroviruses and AIDS, 1988. A compilation of nucleic acid and amino acid sequences. Los Alamos National Laboratory, Los Alamos, N. Mex., 87545, USA).

antibodies to HIV-1 [1] = test: Rapid HIV-1 EIA with peptide reagents immobilized on latex in rapid test device; assay type: binding, human; settings: passive adsorption
Procedure: A test device for performing rapid tests in less than 15 minutes was prepared as illustrated in FIGS. 14 and 15. Referring to FIGS. 14 and 15, the device comprises a plastic slide 10 (approximately 1 inch wide by 3/16 inch thick by 31/4 inches long) having a plurality of funnel-like wells 12, each having a capacity of approximately 200 microliters, an upper inflow tract rim 14 diameter of approximately 9 mm and a lower outflow tract 16 diameter of approximately 2 mm. The undersurface of the outflow tract 16 is designed so as to provide a smooth even contact with a membrane filter 18 placed next to it in the apparatus. The membrane filter separates reactants passing through it by size, retaining those particles above a predetermined size, such as above 0.22 microns, or above 0.45 microns in size (depending upon the specific filter chosen), through other filters placed into the apparatus might separate by binding or affinity (i.e. nitrocellulose, glass). […]
The mixture was shaken gently a room temperature for 1 hour, and then washed 3 times by centrifugation at 9,000×g for 10 minutes, removal of supernate, and resuspension of the pellet in a 12-14 ml volume of deionized water, pH 4.5. […] It was determined that this stock solution of latex coated with peptide-BSA conjugate could be diluted 1:10-1:30 with latex diluent buffer for use in the rapid EIA described below. […]

antibodies to HIV-1 [2] = test: EIA of peptide-protein conjugates coated on polystyrene microtiter plates, human sera; assay type: binding
Procedure: as §1, §2

With ARLNSWGCAFRQVCHGC [2S25] the “discrimination of HIV-2+ from HIV-2- serum samples, rapid EIA” value (antibodies to HIV-2) was “capable of discriminating”, the “immunoreactivity with SIV/HIV-2 antibodies (FIG. 5)” value (antibodies to SIV/HIV-2; C-terminal BSA-SMCC conjugates, 10 micrograms peptide/ml coating, 1:101 dilution of pooled SIV+ / SIV- macaque sera) was “Significant immunoreactivity; also recorded: best immunoreactivity; also recorded: maximally immunoreactive” and the “discrimination of positive from negative macaque sera (FIG. 7)” value (antibodies to SIV/HIV-2; peptide-BSA conjugates) was “most favorable performances”.
With “VWGCSGKLICTTAVPGC [4S36, unnatural variant of HIV-1 gp41 peptide 2S09]” the “performance of free peptide passively adsorbed to latex” value (antibodies to HIV-1 [1]) was “produced an immunoreactive reagent”, the “reactivity with sera not containing antibodies to HIV-1 (FIGS. 10C, 11)” value (antibodies to HIV-1 [2]; BSA-SMCC conjugate, 85-87 negative human sera) was “acceptably low” and the “number of positive samples giving A492 less than 1.0” value (antibodies to HIV-1 [2]; BSA-SMCC conjugate, 98 positive human sera (FIGS. 11A, 11B)) was “none”. The “positive/negative ratios (FIG. 9)” value (antibodies to HIV-1 [2]; BSA-peptide conjugate, polystyrene plastic type 1 (low reactivity with normal human sera)) was no less than 20.
